The text below walks through data of ChEMBL document CHEMBL5620438, “Noducyclamides A1-A4, B1, and B2 from the Cyanobacterium Nodularia sp. NIES-3585” (J Nat Prod, 2024).

Broadly, the IC50 is the concentration at which inhibition is half-maximal.

For experiment [1], the system named is MCF7. Description: Cytotoxicity against human MCF7 cells assessed as decrease in cell viability incubated for 72 hrs by MTT assay. It is filed as functional, cell-based. Conditions: MCF7, 72 h. (Formazan colour is commonly taken as a measure of viable cells.)
The test system of experiment [2] is MCF7. The experiment is described as follows: Synergistic cytotoxicity against human MCF7 cells assessed as reduction in cell viability incubated for 72 hrs by MTT assay in presence of Noducyclamide B1. The experiment is classed as functional, cell-based.

≈ marks a conversion by molar mass, not a printed value. Calls of active or inactive are those of the source. The calls are words filed in the database; no cut-off is given here.

As to `CCCCCCC[C@@H]1CC(=O)N[C@@H](C(C)C)C(=O)N[C@H]([C@@H](O)C(C)C)C(=O)N[C@@H](C)C(=O)N[C@H]([C@@H](O)C(C)C)C(=O)N[C@@H](CCC(N)=O)C(=O)N(C)[C@@H]([C@@H](C)CC)C(=O)N[C@H](CC(N)=O)C(=O)N[C@H]([C@H](C)O)C(=O)N2C[C@H](O)C[C@H]2C(=O)N[C@H](C(C)C)C(=O)N[C@@H]([C@@H](C)O)C(=O)N1`, in the experiment with MCF7 [1], the IC50 was 3 µg/mL (≈ 2.17 µM).

For the compound `CCCCCCC[C@@H]1CC(=O)N[C@@H](CCC(N)=O)C(=O)N2C[C@H](O)C[C@H]2C(=O)N2CCC[C@H]2C(=O)N[C@@H](Cc2ccc(O)cc2)C(=O)N[C@H](CC(C)C)C(=O)N[C@@H](C(C)C)C(=O)N[C@H](C(C)(C)O)C(=O)N[C@@H](CC(C)C)C(=O)NCC(=O)N1`, in the experiment on MCF7 [2], the outcome was inactive. For the same compound, the half-maximal inhibitory concentration (IC50) in the experiment on MCF7 [1] amounted to 9.6 µg/mL (≈ 8.22 µM).

Consider `CCCCCCC[C@@H]1CC(=O)N[C@@H](CCC(N)=O)C(=O)N2C[C@H](O)C[C@H]2C(=O)N2C[C@H](O)C[C@H]2C(=O)N[C@@H](Cc2ccc(O)cc2)C(=O)N[C@H](CC(C)C)C(=O)N[C@@H](C(C)C)C(=O)N[C@H](C(C)(C)O)C(=O)N[C@@H](CC(C)C)C(=O)NCC(=O)N1`, for which the result in the experiment with MCF7 [2] was inactive. The IC50 in the experiment with MCF7 [1] was 18 µg/mL (≈ 15.2 µM).
